For the test, the system named is MDA-MB-468 breast. Briefly: growth of human tumour cells (NCI), 48 h.

The structures appear in SMILES notation. Values joined by “and” are separate entries in the source; they are usually repeats but may differ in a detail not shown here. Equal entries are not always repeated.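 Five compound concentrations were applied to cells in 96-well plates for 48 hours; endpoints were derived by simple linear interpolation of the resulting dose-response curve. Here, GI50 denotes the concentration required for 50% inhibition of growth. Definition used: TGI = concentration required for complete inhibition of growth.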

GI50 and TGI data for 39 molecules are collected here from PubChem BioAssay (NCI).

As to `COc1cc(/C=C2\CCCC3=C2NC(C)=NC3c2cc(OC)c(OC)c(OC)c2)cc(OC)c1OC` (stereo not drawn), the GI50 is 1180 nM and the TGI was 3910 nM.
For `CCCCCN(CCCCC)CC(O)c1ccc(Cl)c2ccccc12` (stereo not drawn), in that order: 11100 nM and 24000 nM.
The like results for `CCN(CC)CCCC(C)Nc1cnc(C(=O)Nc2cccc3ccc(OC)nc23)cn1` (stereo not drawn) were, in that order, 1580 nM and 3190 nM.
For `COC(=O)C12C3C4C1C1C2C3C41NC(=O)c1csc([C@@H](C[C@H](C(C)C)N(C)C(=O)[C@@H](NC(=O)[C@H]2CCCCN2C)C2CC2)OC(C)=O)n1` (stereo partly drawn), in that order: 19.8 nM and 31500 nM.
`CN1CCN(c2ccc(Nc3nc(NCCCNS(=O)(=O)c4ccc(C(F)(F)F)cc4)c4sccc4n3)cc2)CC1`: the GI50 was 1730 nM and the TGI turned out to be 3560 nM.
Regarding `C=C1C(=O)O[C@H]2[C@H]1CC/C(COC(=O)c1cc3ccccc3s1)=C\CC[C@@]1(C)O[C@@H]21`, the GI50 is 1630 nM and the TGI worked out at 3950 nM.
The like results for `CCOC(=O)c1c(C)nc2c(c1N)/C(=C/c1ccc(OC)cc1)C(=O)N2Cc1ccc(F)cc1` were, in that order, 194 nM and 650 nM.
The like results for `Cc1ccc(C(=O)Nc2ccc(CN3CCN(C)CC3)c(C(F)(F)F)c2)cc1C#Cc1cnc(N)c2ccccc12` were, in that order, 620 nM and 1640 nM.
For `N#Cc1cccc(NC(=O)c2cc(-c3ccc(F)cc3F)ccc2O)c1`, the GI50 was 1660 nM and 1450 nM; the TGI was 5940 nM and 6400 nM.
For `CC1(C)N=C(N)N=C(N)N1c1ccc(OCc2ccc(S(=O)(=O)F)c(Cl)c2)c(Cl)c1`, the GI50 is 2290 nM and the TGI was over 100000 nM.
On to `C/C(=N\Nc1ccc(Cl)cn1)c1ccccn1`, for which the GI50 was 65.5 nM and the TGI worked out at 293 nM.
The like results for `Cc1ccc(NC(=O)NCCCOc2ccc(N3C(N)=NC(N)=NC3(C)C)cc2Cl)cc1S(=O)(=O)F` were, in that order, 17300 nM and over 100000 nM.
Take `C=C[C@H]1C[C@@H]2C[C@@H]3[C@H]4C/C=C\C(=O)NCCCC5NC(=O)C(=C(O)/C=C/[C@@H]4CC(=O)[C@H]3[C@@H]2[C@H]1C)C5=O` (stereo partly drawn): the GI50 was 1590 nM and the TGI is 3090 nM.
For `Cn1c2ccccc2c2c3[nH]c(=O)[nH]c(=O)c3c3c4ccccc4n(C)c3c21`, in that order: 3510 nM and 29100 nM.
On to `Cc1ccc(NC(=O)c2sc3nc(C)c(C(O)c4ccccc4)cc3c2N)cc1` (stereo not drawn), for which the GI50 is 349 nM and the TGI was found to be 50700 nM.
Consider `Cc1c2cc(O)c(=O)cc-2oc2cc(O)c(O)cc12`, for which the GI50 is over 100000 nM and the TGI is over 100000 nM.
In the case of `O=C1/C(=C/c2ccc(O)cc2)CSc2ccc(Cl)cc21`, the GI50 is 4840 nM and the TGI worked out at 28000 nM.
Consider `COc1ccc(-c2nnc(COc3ccc(NC(=O)Nc4ccc(Cl)c(C(F)(F)F)c4)cc3F)o2)cc1`, for which the GI50 was 2270 nM and the TGI was 8600 nM.
The like results for `COc1ccc(OC)c(C(=O)c2oc3ccc(Br)cc3c2N)c1` were, in that order, 206 nM and 5220 nM.
With `Nc1nc(-c2cccc(Cl)c2)c(-c2ccc3ncccc3n2)s1`, the GI50 is over 15700 nM and the TGI was over 25000 nM.
As to `O=C(/C(=C/c1cccc([N+](=O)[O-])c1)c1ccccc1)c1ccccc1`, the GI50 is 2700 nM and the TGI was 8800 nM.
For `COC(=O)[C@H](Cc1c[nH]c2ccccc12)NC(=O)[C@@H](OC)[C@@H]1Cc2cc3cc(OC4CC(OC5CC(O)C(O)C(C)O5)C(O)C(C)O4)c(C)c(O)c3c(O)c2C(=O)[C@H]1OC1CC(OC2CC(OC3CC(C)(O)C(O)C(C)O3)C(O)C(C)O2)C(O)C(C)O1` (stereo partly drawn), the GI50 is 3.21 nM and the TGI stood at 11 nM.
As to `CC[C@H](C)[C@H]1O[C@]2(C=C[C@@H]1C)C[C@@H]1C[C@@H](C/C=C(\C)[C@@H](O[C@H]3C[C@H](OC)[C@@H](O[C@H]4C[C@H](OC)[C@@H](NC)[C@H](C)O4)[C@H](C)O3)[C@@H](C)/C=C/C=C3\CO[C@@H]4[C@H](O)C(C)=C[C@@H](C(=O)O1)[C@]34O)O2`, the GI50 is 1460 nM and the TGI amounted to 3170 nM.
As for `Cc1ccc2c3c(c(=O)[nH]c2c1)C1(C(C#N)=C(N)O3)c2cc(Br)ccc2-c2ccc(Br)cc21`, the GI50 is 1640 nM and the TGI came to 3550 nM.
For the molecule `C=C(C)C1CCC2(C(=O)O)CCC3(C)C(CCC4C5(C)CCC(OC(=O)NCc6ccccc6)C(C)(C)C5CCC43C)C12` (stereo not drawn), the GI50 was 1730 nM and the TGI came to 34700 nM.
Consider `COc1ncc(-c2ccc3ncnc(Nc4cccc(Cl)c4)c3c2)cc1NS(=O)(=O)CCN1CCOCC1`, for which the GI50 was under 10 nM and the TGI is 437 nM.
Turning to `CCCn1cnc2c(c1=N)C(c1ccc(F)cc1)c1sc3c(C)cccc3c1O2` (stereo not drawn), the GI50 is 1290 nM and the TGI is 19200 nM.
On to `Cc1cc(O)c(C(C)(C)C)cc1Sc1cc(C(C)(C)C)c(O)cc1C`, for which the GI50 is 2090 nM and the TGI amounted to 5120 nM.
`O=C(/C=C\n1cnc(-c2cc(C(F)(F)F)cc(C(F)(F)F)c2)n1)NNc1cnccn1`: the GI50 is 92.3 nM and the TGI turned out to be 657 nM.
Take `COC(=O)c1c(C)[nH]c(/C=C2\N=C(c3ccc[nH]3)C=C2OC)c1C`: the GI50 is 1200 nM and the TGI stood at 2730 nM.
With `COc1cc(NS(=O)(=O)c2ccc(-c3cnc(C4CC4)o3)cc2)ccc1F`, the GI50 was 122 nM and the TGI turned out to be 11300 nM.
On to `Fc1ccc(-c2nn3ncccc3c2-c2ccnc(Nc3ccc4c(c3)OCCO4)n2)cc1`, for which the GI50 was 624 nM and the TGI was determined as 3240 nM.
For the molecule `CC(C)(C)c1cc(NC(=O)Cc2ccc(-c3cnc4cc(-c5cnn(CCN6CCOCC6)c5)ccc4n3)cc2)no1`, the GI50 is 700 nM and 796 nM and 111 nM; the TGI was 50000 nM and > 100000 nM and > 3000 nM.
Take `COc1ccc2nc3cc(Cl)ccc3c(NCCN)c2c1`: the GI50 was 1840 nM and the TGI is 3790 nM.
The like results for `O=S1(=O)N(CCNc2nccc(-c3c(-c4cccc(O)c4)nc4sccn34)n2)CCN1Cc1ccccc1` were, in that order, 8460 nM and 27900 nM.
Regarding `CON(C)C(=O)N1N=C(c2cc(F)ccc2F)SC1(CCCN)c1ccccc1` (stereo not drawn), the GI50 is under 10 nM; the TGI was 1570 nM and 456 nM.
Turning to `CCc1oc2ccccc2c1C(=O)c1cc(I)c(O)c(I)c1`, the GI50 was 2380 nM and the TGI worked out at 8500 nM.
Turning to `CC(C)(O)c1cncc(-c2ccc3ncc(C#N)c(N4CCc5cc(F)c(Cl)cc54)c3c2)c1`, the GI50 was 11800 nM and the TGI turned out to be 30600 nM.
In the case of `CC[CH2][Sn]([Cl])([Cl])[CH2]CC.Oc1ccccc1C=NCCN=Cc1ccccc1O`, the GI50 was 1510 nM and the TGI is 3270 nM.
